Measured values published in the supplement of paper PMC11208160.

Assay: recombinant UMI read abundance after kanamycin selection (control-corrected) (log10(CPM+1)); higher = more efficient recombination; extreme values may be limits of the assay; sequences stand for … in AGTGCAGAGAAAATCGGCCAGTTTTCTCTGCCTGCAGTCCGCATGCCGTGGGACCCCTTGGGTTCTAACCTGTTGCCTAGATTTATGCAGCGGACTGCCTTTCTCCCAAAGTGATAAACCGG…AGGTTGGTTTCACT; site = the 11-nt donor
Procedure, shortened: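 In Escherichia coli, a pool of donor and donor-binding-loop pairs, each with a 12-nt UMI, was tested for the IS621 bridge recombinase. Plating was on IPTG (0.07 mM) plus kanamycin, or without selection, in two replicates. Recombinant UMIs were amplified by PCR across the donor–target junction and sequenced, and counts were reported as log10(CPM+1) after averaging and control-derived scaling.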
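Also: IS621 bridge recombinase in Escherichia coli cells against a fixed T5 target plasmid.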

Point of comparison: “ACAAGTGCATGGACCGGTTTTCCCGGTAATCCGTATTTGGT (site ACTAGTGCTAC)”, “recombinant UMI read abundance (log10)” value 1.16. Against it:
- ATGGTGTCATGGACCGGTTTTCCCGGTAATCCGTATTTGCT (site ATGGTGTCTAG) — higher, 3.4
- CTGGCATCATGGACCGGTTTTCCCGGTAATCCGTATTTGAC (site CTGGCATCTGT) — higher, 1.53
- ACGAGTCCATGGACCGGTTTTCCCGGTAATCCGTATTTGGG (site ACGAGTCCTCC) — lower, 0.00727
- CACTCCACATGGACCGGTTTTCCCGGTAATCCGTATTTGCC (site CACTCCACTGG) — higher, 2.65
- AACCGTACATGGACCGGTTTTCCCGGTAATCCGTATTTGAT (site AACCGTGCTAT) — lower, 0.108
- CGTGAGACATGGACCGGTTTTCCCGGTAATCCGTATTTGAG (site CGTAAGACTCT) — higher, 2.08
- CCTAAATCATGGACCGGTTTTCCCGGTAATCCGTATTTGCA (site CCTAAATCTTG) — lower, 0
- TAGAGTCCATGGACCGGTTTTCCCGGTAATCCGTATTTGTA (site TATAGTCCTTA) — lower, 0.132
- AAAAGATCATGGACCGGTTTTCCCGGTAATCCGTATTTGGA (site AAAAGATCTTC) — higher, 1.94
- GATGTTCCATGGACCGGTTTTCCCGGTAATCCGTATTTGGT (site GGTGTTCCTAC) — lower, 0
- AGAAATGCATGGACCGGTTTTCCCGGTAATCCGTATTTGCT (site AGAAAGGCTAG) — lower, 0
- CAATCGACATGGACCGGTTTTCCCGGTAATCCGTATTTGGG (site CAATCGACTCC) — lower, 0.0993
- TTCTTGACATGGACCGGTTTTCCCGGTAATCCGTATTTGCT (site TTCTTGACTAG) — lower, 0.68
- TTAATATCATGGACCGGTTTTCCCGGTAATCCGTATTTGAC (site CTAGTATCTGT) — lower, 0
- ACACCAACATGGACCGGTTTTCCCGGTAATCCGTATTTGTC (site ACACAAACTGA) — lower, 0
- ACTATAACATGGACCGGTTTTCCCGGTAATCCGTATTTGAG (site ACTATAACTCT) — higher, 1.72
- AGCCTCGCATGGACCGGTTTTCCCGGTAATCCGTATTTGTA (site AGCCTCGCTTA) — lower, 0.57
- CGACCATCATGGACCGGTTTTCCCGGTAATCCGTATTTGGT (site CGATCATCTAG) — lower, 0
- CTCGTATCATGGACCGGTTTTCCCGGTAATCCGTATTTGAC (site CTAGTATCTGT) — lower, 0.00452
- CGCCCTACATGGACCGGTTTTCCCGGTAATCCGTATTTGAG (site CTCCCTACTCT) — lower, 0.0151
- CAAGGGCCATGGACCGGTTTTCCCGGTAATCCGTATTTGTG (site CAAGGGCCTCA) — lower, 0.314
- CGGAATCCATGGACCGGTTTTCCCGGTAATCCGTATTTGTT (site CGGAATCCTAC) — lower, 0
- AGGCAGACATGGACCGGTTTTCCCGGTAATCCGTATTTGGA (site AGGCAGACTTC) — within 0.2 log units, 1.21
- CAAGTCCCATGGACCGGTTTTCCCGGTAATCCGTATTTGGG (site CAAGTCTCTCC) — lower, 0.025
- CGTTTGGCATGGACCGGTTTTCCCGGTAATCCGTATTTGCT (site CCTTTGGCTAG) — lower, 0
- CCCCTCACATGGACCGGTTTTCCCGGTAATCCGTATTTGTA (site CCCCCCACTTA) — lower, 0.274
- TTTAATACATGGACCGGTTTTCCCGGTAATCCGTATTTGAA (site TTTAATACTTT) — lower, 0.00702
- ATTGAGACATGGACCGGTTTTCCCGGTAATCCGTATTTGGC (site ATTGAGACTAC) — lower, 0.0133
- TCCAACGCATGGACCGGTTTTCCCGGTAATCCGTATTTGCG (site TCCACCGCTCG) — lower, 0
- AGGAAGTCATGGACCGGTTTTCCCGGTAATCCGTATTTGCG (site AGGAAGACTTG) — lower, 0
- CGGGCACCATGGACCGGTTTTCCCGGTAATCCGTATTTGAT (site CGGGAACCTAT) — lower, 0
- ACATCTACATGGACCGGTTTTCCCGGTAATCCGTATTTGTG (site ACATTTACTCA) — lower, 0.319
- GTAGTCGCATGGACCGGTTTTCCCGGTAATCCGTATTTGCC (site GTAGTCGCTAG) — higher, 1.64
- CGGGCATCATGGACCGGTTTTCCCGGTAATCCGTATTTGCT (site CGGGCATCTAG) — higher, 1.86
- CCCGTCTCATGGACCGGTTTTCCCGGTAATCCGTATTTGGG (site CCCATCTCTCC) — lower, 0.0267
- CACTCCTCATGGACCGGTTTTCCCGGTAATCCGTATTTGCC (site CACTGCTCTGG) — lower, 0.00619
